From ChEMBL document CHEMBL3751684, “2,3-Dihydrobenzofuran privileged structures as new bioinspired lead compounds for the design of mPGES-1 inhibitors” (Bioorg Med Chem, 2016) come the findings set out here.

For test [1], the target named is T1, Prostaglandin E synthase (Homo sapiens) (UniProt O14684).
T1 sequence (whole entry): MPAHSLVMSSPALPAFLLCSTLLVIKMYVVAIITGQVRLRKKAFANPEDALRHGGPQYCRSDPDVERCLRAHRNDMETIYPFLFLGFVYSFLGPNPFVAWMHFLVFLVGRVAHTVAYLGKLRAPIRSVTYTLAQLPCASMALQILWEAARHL
Nature of the test: Inhibition of PGES-1 in IL-1beta stimulated human A549 cell microsomes using PGH2 as substrate assessed as suppression of PGE2 formation at 10 uM preincubated for 15 mins followed by substrate addition by reversed phase-HPLC analysis.

In a further test the target is T2, Prostaglandin E synthase (Homo sapiens, UniProt O14684).
T2 sequence (O14684 whole entry): T1 sequence (whole entry)
Nature of the test: Inhibition of PGES-1 in IL-1beta stimulated human A549 cell microsomes using PGH2 as substrate assessed as suppression of PGE2 formation preincubated for 15 mins followed by substrate addition by reversed phase-HPLC analysis.

Active and inactive are the calls of the source. The rule behind the calls is not given here.

As to `COc1cc(/C=C/c2ccc3c(c2)[C@@H](c2cc(OC)cc(OC)c2)[C@H](c2ccc(O)cc2)O3)cc(OC)c1` (racemic), the inhibition result in test [1] was “Active”. For orientation: IC50 means the concentration that inhibits the measured activity by half. Consider `CCCCOC(=O)/C=C/c1cc(O)c2c(c1)[C@@H](C(=O)OCCCC)[C@H](c1ccc(O)c(O)c1)O2` (racemic), for which, on Prostaglandin E synthase, the half-maximal inhibitory concentration (IC50) turned out to be 2100 nM. Besides, the inhibition result in test [1] is “Active”. With `O=C(/C=C/c1cc(O)c2c(c1)[C@@H](C(=O)OCCc1ccccc1)[C@H](c1ccc(O)c(O)c1)O2)OCCc1ccccc1` (racemic) [listing 1 of 2 here], the IC50 at Prostaglandin E synthase worked out at 2000 nM. Consider `COc1ccc(/C=C/c2ccc3c(c2)[C@@H](c2ccc(OC)cc2)[C@H](c2ccc(O)cc2)O3)cc1` (racemic), for which, in test [1], the inhibition result is “Active”. For `COC(=O)/C=C/c1cc(O)c2c(c1)[C@@H](C(=O)OC)[C@H](c1ccc(O)c(O)c1)O2` (racemic), at Prostaglandin E synthase, the IC50 came out at 8500 nM. Besides, the inhibition entry in test [1] is “Active”.

Regarding `O=C(/C=C/c1cc(O)c2c(c1)[C@@H](C(=O)OCCc1ccccc1)[C@H](c1ccc(O)c(O)c1)O2)OCCc1ccccc1`, the concentration for half-maximal inhibition (IC50) on Prostaglandin E synthase is 2100 nM. As for `CCOC(=O)/C=C/c1cc(O)c2c(c1)[C@@H](C(=O)OCC)[C@H](c1ccc(O)c(O)c1)O2` (racemic), the half-maximal inhibitory concentration (IC50) on Prostaglandin E synthase was 3600 nM. For the same compound, the inhibition entry in test [1] was “Active”. Consider `COc1cc([C@@H]2Oc3c(OC)cc(/C=C/c4cc(OC)c(OC)c(OC)c4)cc3[C@H]2c2cc(OC)c(OC)c(OC)c2)ccc1O` (racemic), for which, in test [1], the inhibition entry is “Active”.

Regarding `O=C(/C=C/c1cc(O)c2c(c1)[C@H](C(=O)OCCc1ccccc1)[C@@H](c1ccc(O)c(O)c1)O2)OCCc1ccccc1`, the half-inhibitory concentration (IC50) on Prostaglandin E synthase came out at 2800 nM. As to `O=C(/C=C/c1cc(O)c2c(c1)[C@@H](C(=O)OCCc1ccccc1)[C@H](c1ccc(O)c(O)c1)O2)OCCc1ccccc1` (racemic) [listing 2 of 2 here], the inhibition entry in test [1] is “Active”. Turning to `C=Cc1ccc(/C=C/c2ccc3c(c2)[C@@H](c2ccc(C=C)cc2)[C@H](c2ccc(O)cc2)O3)cc1` (racemic), the inhibition result in test [1] was “inactive”.
